Laboratory results: ChEMBL document CHEMBL5241107, “Discovery of an eIF4A Inhibitor with a Novel Mechanism of Action” (J Med Chem, 2021)
The source made the active and inactive calls. No cut-off for these calls is given here.

Key:
[1] = target: Eukaryotic initiation factor 4A-I (Homo sapiens, UniProt P60842, R311E); test: Inhibition of human recombinant N-terminal His6-tagged eIF4A R311E mutant expressed in Escherichia coli BL21 CodonPlus cells using ATP and yeast RNA as substrate preincubated with enzyme for 20 mins followed by susbtrate addition and measured after 4 hrs by Malachite green ATPase assay
[2] = target: T1, Eukaryotic initiation factor 4A-I (Homo sapiens, UniProt P60842); test: Displacement of MANT-ATP from human recombinant N-terminal His6-tagged eIF4A expressed in Escherichia coli BL21 CodonPlus cells at 200 uM preincubated with enzyme and yeast RNA for 20 mins followed by MANT-ATP addition for 30 mins by fluorescence polarization assay; conditions: time 50.0 min
Reticulocyte [3] = test: Inhibition of eIF4A in rabbit reticulocyte lysate assessed as inhibition of cap-dependent translation of firefly luciferase using bicistronic luciferase reporter [pSP/(CAG)33/FF/HCV/Ren.pA51] incubated for 90 mins by luciferase reporter gene based luminescence analysis; type: subcellular; conditions: Oryctolagus cuniculus
[4] = target: T1, Eukaryotic initiation factor 4A-I; test: Displacement of FAM-[AG]8 from human recombinant N-terminal His6-tagged eIF4A expressed in Escherichia coli BL21 CodonPlus cells preincubated with enzyme for 20 mins followed by FAM-[AG]8 addition for 30 mins by fluorescence polarization assay; conditions: time 50.0 min
[5] = target: Eukaryotic initiation factor 4A-I (Homo sapiens, UniProt P60842, T158V); test: Inhibition of human recombinant N-terminal His6-tagged eIF4A T158V mutant expressed in Escherichia coli BL21 CodonPlus cells using ATP and yeast RNA as substrate preincubated with enzyme for 20 mins followed by susbtrate addition and measured after 4 hrs by Malachite green ATPase assay
[6] = target: T1, Eukaryotic initiation factor 4A-I; test: Inhibition of helicase activity of human recombinant N-terminal His6-tagged eIF4A expressed in Escherichia coli BL21 CodonPlus cells assessed as decrease in single stranded signal using Cy3-labeled RNA strand and unlabeled DNA strand by native PAGE analysis
[7] = system: Eukaryotic initiation factor 4A-I (Homo sapiens), P60842 [R110K]; test: Inhibition of human recombinant N-terminal His6-tagged eIF4A R110K mutant expressed in Escherichia coli BL21 CodonPlus cells using ATP and yeast RNA as substrate preincubated with enzyme for 20 mins followed by susbtrate addition and measured after 4 hrs by Malachite green ATPase assay; conditions: time 260.0 min
[8] = target: Eukaryotic initiation factor 4A-I (Homo sapiens, UniProt P60842, T158A); test: Inhibition of human recombinant N-terminal His6-tagged eIF4A T158A mutant expressed in Escherichia coli BL21 CodonPlus cells using ATP and yeast RNA as substrate preincubated with enzyme for 20 mins followed by susbtrate addition and measured after 4 hrs by Malachite green ATPase assay
[9] = target: T1, Eukaryotic initiation factor 4A-I; test: Competitive inhibition of human recombinant N-terminal His6-tagged eIF4A expressed in Escherichia coli BL21 CodonPlus cells assessed as […] with constant Vmax of RNA using 250 uM ATP and varying concentration of yeast RNA as substrate preincubated with enzyme for 20 mins followed by substrate addition and measured after 1 to 7 hrs by Malachite green ATPase assay; conditions: time 80-440 min
[10] = target: Eukaryotic initiation factor 4A-I (Homo sapiens, UniProt P60842, R110E); test: Inhibition of human recombinant N-terminal His6-tagged eIF4A R110E mutant expressed in Escherichia coli BL21 CodonPlus cells using ATP and yeast RNA as substrate preincubated with enzyme for 20 mins followed by susbtrate addition and measured after 4 hrs by Malachite green ATPase assay
[11] = target: T1, Eukaryotic initiation factor 4A-I; test: Binding affinity to human recombinant N-terminal His6-tagged eIF4A expressed in Escherichia coli BL21 CodonPlus cells assessed as increase in melting temperature at 3.13 to 50 uM incubated for 5 mins by differential scanning fluorimetry; conditions: dose 3.13-50 µM
[12] = target: T1, Eukaryotic initiation factor 4A-I; test: Binding affinity to eIF4A in human A549 cells assessed as increase in thermal stability of the protein incubated for 90 mins by CETSA analysis; type: cell-based; conditions: dose 0.041-10 µM
[13] = target: Eukaryotic initiation factor 4A-I (Homo sapiens, UniProt P60842, R110M); test: Inhibition of human recombinant N-terminal His6-tagged eIF4A R110M mutant expressed in Escherichia coli BL21 CodonPlus cells using ATP and yeast RNA as substrate preincubated with enzyme for 20 mins followed by susbtrate addition and measured after 4 hrs by Malachite green ATPase assay
[14] = target: Eukaryotic initiation factor 4A-I (Homo sapiens, UniProt P60842, R110L); test: Inhibition of human recombinant N-terminal His6-tagged eIF4A R110L mutant expressed in Escherichia coli BL21 CodonPlus cells using ATP and yeast RNA as substrate preincubated with enzyme for 20 mins followed by susbtrate addition and measured after 4 hrs by Malachite green ATPase assay
[15] = target: T1, Eukaryotic initiation factor 4A-I; test: Inhibition of helicase activity of human recombinant N-terminal His6-tagged eIF4A expressed in Escherichia coli BL21 CodonPlus cells using Cy3-labeled RNA strand and unlabeled DNA strand by native PAGE analysis
Reticulocyte [16] = test: Inhibition of IRES-dependent translation of renilla luciferase in rabbit reticulocyte lysates using bicistronic luciferase reporter [pSP/(CAG)33/FF/HCV/Ren.pA51] incubated for 90 mins by luciferase reporter gene based luminescence analysis; type: functional, subcellular; conditions: Oryctolagus cuniculus
BJAB = test: Cytotoxicity against human BJAB cells assessed as reduction in cell viability measured after 72 hrs by CellTiter-Glo luminescent assay; type: functional, cell-based; conditions: Homo sapiens, BJAB, 72 h; read-out: EC50
[17] = target: T1, Eukaryotic initiation factor 4A-I; test: Inhibition of helicase activity of human recombinant N-terminal His6-tagged eIF4A expressed in Escherichia coli BL21 CodonPlus cells assessed as increase in double stranded signal using Cy3-labeled RNA strand and unlabeled DNA strand by native PAGE analysis
[18] = target: Eukaryotic initiation factor 4A-I (Homo sapiens, UniProt P60842, R311K); test: Inhibition of human recombinant N-terminal His6-tagged eIF4A R311K mutant expressed in Escherichia coli BL21 CodonPlus cells using ATP and yeast RNA as substrate preincubated with enzyme for 20 mins followed by susbtrate addition and measured after 4 hrs by Malachite green ATPase assay
[19] = target: T1, Eukaryotic initiation factor 4A-I; test: Uncompetitive inhibition of human recombinant N-terminal His6-tagged eIF4A expressed in Escherichia coli BL21 CodonPlus cells assessed as decrease in Km and Vmax of ATP using varying concentrations of ATP and 250 ug/ml yeast RNA as substrate preincubated with enzyme for 20 mins followed by substrate addition and measured after 1 to 7 hrs by Malachite green ATPase assay; conditions: time 80-440 min

T1 sequence (P60842 whole entry): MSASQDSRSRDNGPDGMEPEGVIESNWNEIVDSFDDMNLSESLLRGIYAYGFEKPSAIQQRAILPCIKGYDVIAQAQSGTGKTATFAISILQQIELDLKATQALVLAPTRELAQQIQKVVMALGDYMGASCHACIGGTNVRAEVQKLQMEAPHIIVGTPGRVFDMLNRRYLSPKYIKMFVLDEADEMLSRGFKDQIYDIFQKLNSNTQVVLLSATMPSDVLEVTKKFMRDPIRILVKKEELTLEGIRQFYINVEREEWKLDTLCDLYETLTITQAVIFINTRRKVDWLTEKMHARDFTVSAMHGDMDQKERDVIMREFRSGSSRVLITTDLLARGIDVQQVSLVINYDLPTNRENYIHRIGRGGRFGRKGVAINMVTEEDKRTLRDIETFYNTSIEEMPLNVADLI
Sequence of Eukaryotic initiation factor 4A-I (Homo sapiens, UniProt P60842, R110E) (P60842 2-406 R110E limits assumed): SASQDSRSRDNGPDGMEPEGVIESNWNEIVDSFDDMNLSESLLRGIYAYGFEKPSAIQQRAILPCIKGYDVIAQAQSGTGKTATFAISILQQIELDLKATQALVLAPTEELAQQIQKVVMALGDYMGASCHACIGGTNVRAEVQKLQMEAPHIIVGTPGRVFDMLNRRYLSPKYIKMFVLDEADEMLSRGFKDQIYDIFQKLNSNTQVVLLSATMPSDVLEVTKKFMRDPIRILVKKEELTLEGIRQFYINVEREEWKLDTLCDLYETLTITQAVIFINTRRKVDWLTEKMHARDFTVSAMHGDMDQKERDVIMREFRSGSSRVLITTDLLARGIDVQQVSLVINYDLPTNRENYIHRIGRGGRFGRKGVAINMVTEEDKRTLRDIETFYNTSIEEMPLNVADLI
Sequence of Eukaryotic initiation factor 4A-I (Homo sapiens, UniProt P60842, R110L) (P60842 2-406 R110L limits assumed): as the sequence (P60842 2-406 R110E limits assumed) above, with E109L counted along it
Sequence of Eukaryotic initiation factor 4A-I (Homo sapiens, UniProt P60842, R311E) (P60842 2-406 R311E limits assumed): as the sequence (P60842 2-406 R110E limits assumed) above, with E109R, R310E counted along it
Sequence of Eukaryotic initiation factor 4A-I (Homo sapiens, UniProt P60842, T158V) (P60842 2-406 T158V limits assumed): as the sequence (P60842 2-406 R110E limits assumed) above, with E109R, T157V counted along it
Sequence of Eukaryotic initiation factor 4A-I (Homo sapiens, UniProt P60842, R110M) (P60842 2-406 R110M limits assumed): as the sequence (P60842 2-406 R110E limits assumed) above, with E109M counted along it
Sequence of Eukaryotic initiation factor 4A-I (Homo sapiens, UniProt P60842, T158A) (P60842 2-406 T158A limits assumed): as the sequence (P60842 2-406 R110E limits assumed) above, with E109R, T157A counted along it
Sequence of Eukaryotic initiation factor 4A-I (Homo sapiens), P60842 [R110K] (P60842 whole entry R110K): as the sequence (P60842 whole entry) above, with R110K counted along it
Sequence of Eukaryotic initiation factor 4A-I (Homo sapiens, UniProt P60842, R311K) (P60842 2-406 R311K limits assumed): as the sequence (P60842 2-406 R110E limits assumed) above, with E109R, R310K counted along it

- IC50 [1]: > 50 µM
- inhibition [2]: inactive
- inhibition (Reticulocyte [3]): Active
- inhibition [4]: Active
- IC50 [5]: > 50 µM
- inhibition [6]: Active
- inhibition [7]: Active
- IC50 [8]: > 50 µM
- inhibition [9]: Active
- IC50 [10]: > 50 µM
- Activity [11]: Active
- Activity [12]: Dose-Dependent Effect
- IC50 [13]: > 50 µM
- IC50 [14]: > 50 µM
- IC50 [15]: 6.58 µM
- inhibition (Reticulocyte [16]): inactive
- inhibition [17]: Active
- IC50 [18]: > 50 µM
- inhibition [19]: Active
SMILES: CCCCc1ccc(-c2ccc(-c3cc(C(=O)O)c4cc([N+](=O)[O-])ccc4n3)o2)cc1
- EC50 (BJAB): 463 nM
